Measured values: the kinase profiling compilation of Christmann-Franck et al. (2016)

Legend:
Assay in all cases: KINOMEscan competition binding
Conditions in all cases: compound 10.0 µM
[1] = tested on: ABL1 (human), P00519 [E255K]
BRAF (human) = BRAF (human) (UniProt P15056)
CDK13 (human) = CDK13 (human) (UniProt Q14004)
CDK2 (human) = CDK2 (human) (UniProt P24941)
CDK4 CCND3 (human) = CDK4 CCND3 (human) (UniProt P11802+P30281)
CPK1 (P.falciparum) = tested on: CPK1 (P.falciparum)
CRK2 (P.falciparum) = CRK2 (P.falciparum) (UniProt P61075)
DYRK1A (human) = DYRK1A (human) (UniProt Q13627)
EGFR (human) = EGFR (human) (UniProt P00533)
[2] = tested on: EGFR (human), P00533 [746-750 del]
[3] = tested on: EGFR (human), P00533 [G719S]
[4] = tested on: EGFR (human), P00533 [L861Q]
[5] = tested on: EGFR (human), P00533 [P753S; 747-752 del]
GRK1 (human) = GRK1 (human) (UniProt Q15835)
GRK1 (human), sequence (Q15835 whole entry, looked up): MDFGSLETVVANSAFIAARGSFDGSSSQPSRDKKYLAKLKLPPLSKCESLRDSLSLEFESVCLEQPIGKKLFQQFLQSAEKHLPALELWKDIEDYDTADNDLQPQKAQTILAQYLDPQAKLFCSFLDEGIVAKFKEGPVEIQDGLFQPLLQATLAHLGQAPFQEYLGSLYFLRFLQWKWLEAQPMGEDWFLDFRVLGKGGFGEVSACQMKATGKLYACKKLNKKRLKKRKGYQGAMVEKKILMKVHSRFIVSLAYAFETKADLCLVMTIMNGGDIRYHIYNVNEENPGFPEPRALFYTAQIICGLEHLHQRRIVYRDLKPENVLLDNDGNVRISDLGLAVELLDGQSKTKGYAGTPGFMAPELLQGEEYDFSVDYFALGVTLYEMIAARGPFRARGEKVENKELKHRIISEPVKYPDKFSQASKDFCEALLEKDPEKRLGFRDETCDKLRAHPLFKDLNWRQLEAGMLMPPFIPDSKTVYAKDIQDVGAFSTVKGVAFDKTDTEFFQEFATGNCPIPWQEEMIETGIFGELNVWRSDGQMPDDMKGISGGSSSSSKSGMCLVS

GRK4 (human) = GRK4 (human) (UniProt P32298)
HIPK2 (human) = HIPK2 (human) (UniProt Q9H2X6)
IRAK4 (human) = IRAK4 (human) (UniProt Q9NWZ3)
KIT (human) = KIT (human) (UniProt P10721)
[6] = tested on: KIT (human), P10721 [V559D/T670I]
MAP3K1 (human) = MAP3K1 (human) (UniProt Q13233)
MAP3K13 (human) = MAP3K13 (human) (UniProt O43283)
MAP3K13 (human), sequence (O43283 whole entry, looked up): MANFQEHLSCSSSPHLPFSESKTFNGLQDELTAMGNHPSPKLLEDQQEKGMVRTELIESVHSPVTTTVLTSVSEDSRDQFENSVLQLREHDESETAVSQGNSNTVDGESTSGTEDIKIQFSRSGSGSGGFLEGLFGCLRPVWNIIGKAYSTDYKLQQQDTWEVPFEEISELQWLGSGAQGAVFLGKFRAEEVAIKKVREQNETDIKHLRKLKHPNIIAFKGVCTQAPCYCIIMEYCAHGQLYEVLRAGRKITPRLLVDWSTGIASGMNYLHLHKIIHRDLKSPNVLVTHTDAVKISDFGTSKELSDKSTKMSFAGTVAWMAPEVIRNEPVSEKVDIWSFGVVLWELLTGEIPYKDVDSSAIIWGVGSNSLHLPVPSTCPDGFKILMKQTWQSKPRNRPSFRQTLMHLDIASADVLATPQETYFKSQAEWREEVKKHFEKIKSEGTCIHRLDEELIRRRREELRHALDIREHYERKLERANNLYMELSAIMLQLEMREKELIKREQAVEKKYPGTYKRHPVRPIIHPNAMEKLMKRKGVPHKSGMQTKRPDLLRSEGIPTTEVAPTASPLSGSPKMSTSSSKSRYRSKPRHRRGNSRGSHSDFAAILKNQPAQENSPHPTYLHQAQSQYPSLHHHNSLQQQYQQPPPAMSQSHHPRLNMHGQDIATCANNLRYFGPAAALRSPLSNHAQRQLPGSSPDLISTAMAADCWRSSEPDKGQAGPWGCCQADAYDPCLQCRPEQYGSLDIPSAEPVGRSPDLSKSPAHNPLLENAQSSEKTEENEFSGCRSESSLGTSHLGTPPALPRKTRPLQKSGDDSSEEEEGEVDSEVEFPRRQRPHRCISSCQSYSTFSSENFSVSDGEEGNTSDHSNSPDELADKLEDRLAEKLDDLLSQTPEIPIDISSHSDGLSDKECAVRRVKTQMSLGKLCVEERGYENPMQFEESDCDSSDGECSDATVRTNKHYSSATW

MAP3K15 (human) = MAP3K15 (human) (UniProt Q6ZN16)
MAP3K2 (human) = MAP3K2 (human) (UniProt Q9Y2U5)
MET (human) = MET (human) (UniProt P08581)
MYLK3 (human) = MYLK3 (human) (UniProt Q32MK0)
NIM1 (human) = NIM1 (human) (UniProt Q8IY84)
PIK3C2G (human) = PIK3C2G (human) (UniProt O75747)
[7] = tested on: PIK3CA (human), P42336 [C420R]
PIK3CA (human), P42336 [C420R], sequence (P42336 whole entry C420R, looked up): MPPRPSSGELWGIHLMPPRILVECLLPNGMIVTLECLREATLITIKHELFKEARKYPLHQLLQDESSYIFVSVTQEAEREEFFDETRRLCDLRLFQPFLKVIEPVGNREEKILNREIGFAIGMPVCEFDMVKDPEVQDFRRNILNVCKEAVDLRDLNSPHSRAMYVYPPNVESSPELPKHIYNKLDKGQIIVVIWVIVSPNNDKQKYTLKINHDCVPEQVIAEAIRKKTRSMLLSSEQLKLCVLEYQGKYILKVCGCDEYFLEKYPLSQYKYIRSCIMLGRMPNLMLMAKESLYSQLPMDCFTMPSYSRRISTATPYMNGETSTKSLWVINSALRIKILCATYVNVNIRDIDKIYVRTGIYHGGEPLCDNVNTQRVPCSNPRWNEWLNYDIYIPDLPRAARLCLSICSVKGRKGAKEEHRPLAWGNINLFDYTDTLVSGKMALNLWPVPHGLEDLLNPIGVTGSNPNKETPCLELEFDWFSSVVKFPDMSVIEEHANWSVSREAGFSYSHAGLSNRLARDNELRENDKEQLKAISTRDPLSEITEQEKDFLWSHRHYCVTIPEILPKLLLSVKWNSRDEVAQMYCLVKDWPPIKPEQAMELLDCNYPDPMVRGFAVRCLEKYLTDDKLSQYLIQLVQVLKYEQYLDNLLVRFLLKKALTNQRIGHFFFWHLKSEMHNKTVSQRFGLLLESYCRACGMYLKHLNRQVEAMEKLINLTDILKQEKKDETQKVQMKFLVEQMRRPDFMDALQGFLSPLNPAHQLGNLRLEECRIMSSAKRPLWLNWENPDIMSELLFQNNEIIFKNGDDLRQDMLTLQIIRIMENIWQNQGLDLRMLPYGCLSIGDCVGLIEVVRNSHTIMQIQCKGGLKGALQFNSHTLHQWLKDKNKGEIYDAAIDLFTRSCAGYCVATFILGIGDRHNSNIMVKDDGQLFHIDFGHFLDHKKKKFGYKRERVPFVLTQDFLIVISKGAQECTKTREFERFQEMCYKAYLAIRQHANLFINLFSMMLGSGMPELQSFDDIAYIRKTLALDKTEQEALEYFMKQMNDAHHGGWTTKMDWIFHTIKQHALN

[8] = tested on: PIK3CA (human), P42336 [H1047Y]
PIK3CA (human), P42336 [H1047Y], sequence (P42336 whole entry H1047Y, looked up): as the sequence (P42336 whole entry C420R, looked up) above, with R420C, H1047Y counted along it

[9] = tested on: PIK3CA (human), P42336 [I800L]
PIK3CA (human), P42336 [I800L], sequence (P42336 whole entry I800L, looked up): as the sequence (P42336 whole entry C420R, looked up) above, with R420C, I800L counted along it

[10] = tested on: PIK3CA (human), P42336 [Q546K]
PIK3CA (human), P42336 [Q546K], sequence (P42336 whole entry Q546K, looked up): as the sequence (P42336 whole entry C420R, looked up) above, with R420C, Q546K counted along it

PIK3CG (human) = PIK3CG (human) (UniProt P48736)
PLK2 (human) = PLK2 (human) (UniProt Q9NYY3)
PLK2 (human), sequence (Q9NYY3 whole entry, looked up): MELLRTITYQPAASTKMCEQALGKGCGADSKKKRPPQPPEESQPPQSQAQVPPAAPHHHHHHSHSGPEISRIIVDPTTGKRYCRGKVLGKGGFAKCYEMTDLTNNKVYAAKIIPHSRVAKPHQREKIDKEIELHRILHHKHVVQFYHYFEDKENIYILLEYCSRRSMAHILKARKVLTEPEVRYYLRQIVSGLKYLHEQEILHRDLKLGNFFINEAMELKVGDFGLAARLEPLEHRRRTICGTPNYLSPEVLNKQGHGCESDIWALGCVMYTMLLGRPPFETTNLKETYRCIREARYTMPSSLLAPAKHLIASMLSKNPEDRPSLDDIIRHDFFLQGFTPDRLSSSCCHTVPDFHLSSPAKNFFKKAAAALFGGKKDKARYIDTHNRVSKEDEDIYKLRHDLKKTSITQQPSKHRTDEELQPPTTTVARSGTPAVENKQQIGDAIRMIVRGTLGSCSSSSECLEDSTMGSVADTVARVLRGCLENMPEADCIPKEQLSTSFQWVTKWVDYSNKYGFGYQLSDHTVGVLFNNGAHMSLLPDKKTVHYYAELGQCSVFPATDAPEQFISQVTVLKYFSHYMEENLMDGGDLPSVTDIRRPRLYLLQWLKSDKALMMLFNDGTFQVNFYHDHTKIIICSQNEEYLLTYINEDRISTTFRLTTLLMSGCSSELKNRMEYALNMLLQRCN

PRKCI (human) = PRKCI (human) (UniProt P41743)
SGK3 (human) = SGK3 (human) (UniProt Q96BR1)
SIK3 (human) = SIK3 (human) (UniProt Q9Y2K2)
STK39 (human) = STK39 (human) (UniProt Q9UEW8)
TAOK2 (human) = TAOK2 (human) (UniProt Q9UL54)
VRK2 (human) = VRK2 (human) (UniProt Q86Y07)
YSK4 (human) = YSK4 (human) (UniProt Q56UN5)

CDK13 (human), sequence (Q14004 whole entry, looked up): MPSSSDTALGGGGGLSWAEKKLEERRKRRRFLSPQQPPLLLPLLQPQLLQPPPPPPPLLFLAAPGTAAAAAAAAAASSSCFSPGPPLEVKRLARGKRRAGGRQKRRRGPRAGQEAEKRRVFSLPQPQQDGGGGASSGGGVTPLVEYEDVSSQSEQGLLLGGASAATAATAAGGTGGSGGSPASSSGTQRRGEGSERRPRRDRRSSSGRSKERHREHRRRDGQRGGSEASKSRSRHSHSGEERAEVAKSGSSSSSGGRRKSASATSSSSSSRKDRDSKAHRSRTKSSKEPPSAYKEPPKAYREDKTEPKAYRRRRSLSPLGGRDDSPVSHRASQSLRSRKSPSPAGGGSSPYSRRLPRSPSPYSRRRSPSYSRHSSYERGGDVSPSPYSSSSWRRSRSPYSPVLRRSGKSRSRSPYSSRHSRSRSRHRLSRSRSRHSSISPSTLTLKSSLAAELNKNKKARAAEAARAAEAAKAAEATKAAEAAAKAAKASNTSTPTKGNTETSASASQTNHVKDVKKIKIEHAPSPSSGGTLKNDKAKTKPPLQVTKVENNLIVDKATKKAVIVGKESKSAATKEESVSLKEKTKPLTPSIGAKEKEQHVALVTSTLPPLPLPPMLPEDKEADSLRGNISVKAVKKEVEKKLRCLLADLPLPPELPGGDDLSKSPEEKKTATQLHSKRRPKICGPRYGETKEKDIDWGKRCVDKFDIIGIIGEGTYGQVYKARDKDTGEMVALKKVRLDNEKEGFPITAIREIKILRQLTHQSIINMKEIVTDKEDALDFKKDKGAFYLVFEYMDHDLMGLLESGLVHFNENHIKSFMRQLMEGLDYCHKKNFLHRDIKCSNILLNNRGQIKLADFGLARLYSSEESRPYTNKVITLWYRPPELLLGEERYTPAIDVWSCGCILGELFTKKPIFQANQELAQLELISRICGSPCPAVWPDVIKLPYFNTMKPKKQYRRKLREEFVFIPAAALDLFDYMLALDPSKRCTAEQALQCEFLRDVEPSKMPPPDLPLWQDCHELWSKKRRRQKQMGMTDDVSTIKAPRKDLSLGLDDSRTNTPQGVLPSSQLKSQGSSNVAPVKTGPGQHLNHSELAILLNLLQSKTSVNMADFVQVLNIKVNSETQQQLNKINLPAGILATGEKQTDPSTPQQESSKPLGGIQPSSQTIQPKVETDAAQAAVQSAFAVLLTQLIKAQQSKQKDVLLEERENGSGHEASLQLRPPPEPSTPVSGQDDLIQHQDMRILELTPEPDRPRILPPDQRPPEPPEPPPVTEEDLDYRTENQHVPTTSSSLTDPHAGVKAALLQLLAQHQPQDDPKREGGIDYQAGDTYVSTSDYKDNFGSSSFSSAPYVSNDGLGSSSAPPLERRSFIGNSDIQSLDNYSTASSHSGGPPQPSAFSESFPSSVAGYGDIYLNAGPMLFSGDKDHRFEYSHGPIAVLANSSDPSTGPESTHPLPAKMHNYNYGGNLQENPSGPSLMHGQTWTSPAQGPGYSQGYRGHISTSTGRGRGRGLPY

Compound	kinase still bound, per cent of control (BRAF (human))	kinase still bound, per cent of control (CDK13 (human))	kinase still bound, per cent of control (CDK2 (human))	kinase still bound, per cent of control (CDK4 CCND3 (human))	kinase still bound, per cent of control (CPK1 (P.falciparum))	kinase still bound, per cent of control (CRK2 (P.falciparum))	kinase still bound, per cent of control (DYRK1A (human))	kinase still bound, per cent of control (EGFR (human))	kinase still bound, per cent of control [2]	kinase still bound, per cent of control [5]	kinase still bound, per cent of control (GRK1 (human))	kinase still bound, per cent of control (GRK4 (human))	kinase still bound, per cent of control (HIPK2 (human))	kinase still bound, per cent of control (IRAK4 (human))	kinase still bound, per cent of control (MAP3K1 (human))	kinase still bound, per cent of control (MAP3K13 (human))	kinase still bound, per cent of control (MAP3K15 (human))	kinase still bound, per cent of control (MAP3K2 (human))	kinase still bound, per cent of control (MET (human))	kinase still bound, per cent of control (MYLK3 (human))	further results
O=C1Nc2ccc(I)cc2/C1=C/c1cc(Br)c(O)c(Br)c1	0.9%	100%	97%	99%	24%	90%	26%	56%	36%	50%	92%	21%	7.6%	90%	84%	100%	80%	100%	100%	10%	kinase still bound, per cent of control [1]: 54%; kinase still bound, per cent of control [3]: 84%; kinase still bound, per cent of control [4]: 55%; kinase still bound, per cent of control (KIT (human)): 3.4%; kinase still bound, per cent of control [6]: 23%; kinase still bound, per cent of control (NIM1 (human)): 100%; kinase still bound, per cent of control (PIK3C2G (human)): 44%; kinase still bound, per cent of control [7]: 100%; kinase still bound, per cent of control [8]: 76%; kinase still bound, per cent of control [9]: 61%; kinase still bound, per cent of control [10]: 97%; kinase still bound, per cent of control (PIK3CG (human)): 71%; kinase still bound, per cent of control (PLK2 (human)): 71%; kinase still bound, per cent of control (PRKCI (human)): 100%; kinase still bound, per cent of control (SGK3 (human)): 73%; kinase still bound, per cent of control (SIK3 (human)): 100%; kinase still bound, per cent of control (STK39 (human)): 100%; kinase still bound, per cent of control (TAOK2 (human)): 71%; kinase still bound, per cent of control (VRK2 (human)): 82%; kinase still bound, per cent of control (YSK4 (human)): 0.4%
Cc1ccc(NC(=O)c2cccc(C(C)(C)C#N)c2)cc1Nc1ccc2ncn(C)c(=O)c2c1	0%	100%	100%	90%	0.75%	94%	79%	37%	15%	19%	100%	100%	73%	83%	76%	100%	100%	88%	89%	100%	kinase still bound, per cent of control [1]: 3.4%; kinase still bound, per cent of control [3]: 37%; kinase still bound, per cent of control [4]: 34%; kinase still bound, per cent of control (KIT (human)): 0%; kinase still bound, per cent of control [6]: 0.35%; kinase still bound, per cent of control (NIM1 (human)): 100%; kinase still bound, per cent of control (PIK3C2G (human)): 88%; kinase still bound, per cent of control [7]: 100%; kinase still bound, per cent of control [8]: 100%; kinase still bound, per cent of control [9]: 100%; kinase still bound, per cent of control [10]: 88%; kinase still bound, per cent of control (PIK3CG (human)): 99%; kinase still bound, per cent of control (PLK2 (human)): 99%; kinase still bound, per cent of control (PRKCI (human)): 100%; kinase still bound, per cent of control (SGK3 (human)): 100%; kinase still bound, per cent of control (SIK3 (human)): 100%; kinase still bound, per cent of control (STK39 (human)): 100%; kinase still bound, per cent of control (TAOK2 (human)): 72%; kinase still bound, per cent of control (VRK2 (human)): 100%; kinase still bound, per cent of control (YSK4 (human)): 0.85%
O=C(O)c1ccc(Nc2ncc3c(n2)-c2ccc(Cl)cc2C(c2c(F)cccc2F)=NC3)cc1	100%	100%	84%	100%	63%	100%	52%	43%	28%	28%	100%	100%	100%	100%	100%	100%	82%	100%	49%	100%	kinase still bound, per cent of control (NIM1 (human)): 100%; kinase still bound, per cent of control (PIK3C2G (human)): 16%; kinase still bound, per cent of control [7]: 67%; kinase still bound, per cent of control [8]: 27%; kinase still bound, per cent of control [9]: 84%; kinase still bound, per cent of control [10]: 14%; kinase still bound, per cent of control (PIK3CG (human)): 100%; kinase still bound, per cent of control (PLK2 (human)): 29%; kinase still bound, per cent of control (PRKCI (human)): 100%; kinase still bound, per cent of control (SGK3 (human)): 100%; kinase still bound, per cent of control (SIK3 (human)): 98%; kinase still bound, per cent of control (STK39 (human)): 100%; kinase still bound, per cent of control (TAOK2 (human)): 94%; kinase still bound, per cent of control (VRK2 (human)): 100%; kinase still bound, per cent of control (YSK4 (human)): 62%
